Assay results taken from patent publication US20060009478A1, “Methods for the treatment of back pain” (priority 2003, published 2006).

System: patients with moderate to severe chronic low back pain
Test: Pain intensity (daily diary, 11-point numerical scale), low back pain study with titration and 12-week fixed-dose period
Type: in vivo, human
Details: for Pain intensity, change from baseline, MEAN (SD) / Pain intensity, percent change from baseline, MEAN (SD) / Pain intensity, actual value, MEAN (SD): LOCF imputation, average of last three days of dosing week; for Pain intensity, change from baseline, MEAN (SD) / Pain intensity, percent change from baseline, MEAN (SD) / Pain intensity, change from baseline, MAXIMUM / Pain intensity, change from baseline, MEDIAN / Pain intensity, change from baseline, MINIMUM / Pain intensity, percent change from baseline, MAXIMUM / Pain intensity, percent change from baseline, MEDIAN / Pain intensity, percent change from baseline, MINIMUM / Pain intensity, actual value, MEAN (SD) / Pain intensity, actual value, MAXIMUM / Pain intensity, actual value, MEDIAN / Pain intensity, actual value, MINIMUM: ITT population
Experimental: A multicenter, randomized, double-blind, active- and placebo-controlled study was designed and conducted.
In addition, adverse events and opioid-related adverse events were to be recorded in the daily diary.
For the pain intensity (PI) scale assessment, the patient was prompted with the question “How would you rate your overall pain intensity at this time?” and the PI score was recorded in the clinic at the Screening and Baseline Visits. Pain intensity was also assessed by prompting the patient with the questions “How would you rate your overall pain intensity during the past 24 hours?” and a daily PI diary score was recorded at bedtime. For both Pain Intensity prompts, the response was scored on an 11-point numerical scale (0=no pain and 10=severe pain).
The baseline average daily pain intensity score for each patient was calculated as the average of the daily bedtime pain intensity scores recorded during the 3 days immediately prior to baseline/start of titration period visit. The post-baseline average daily pain intensity scores were calculated as the average of the daily bedtime pain intensity scores recorded during the last 3 days of dosing prior to each visit. Missing data was imputed using the last-observation-carried-forward (LOCF) approach for efficacy variables in the fixed-dose period. If the first visit in the fixed-dose period was missing, the last value in the titration period was imputed forward. Unless indicated, all testing of statistical significance was two-sided, and a difference resulting in a p-value of equal to or less than 0.05 was considered statistically significant.
A primary efficacy endpoint was the percent change from baseline to the end of the fixed-dose period (Week 12) in average daily pain intensity. The percent change from baseline was calculated as [PI(baseline)−PI(fixed-dose)]/PI(baseline)*100. Data was summarized descriptively by treatment group. An analysis of covariance (ANCOVA) model including treatment and center as effects and baseline pain intensity as the covariate was used for global and pairwise inferences. Separate models were used to evaluate both the treatment by center and treatment by baseline pain intensity interaction terms.
A primary comparison of interest was oxycodone and naltrexone (e.g., BID or QID) versus oxycodone (e.g., QID). Secondary analyses included actual and percent change from baseline values of daily pain index, SF-12, and Oswestry disability index summarized descriptively by treatment group for both the titration and fixed-dose periods. Treatments were compared globally and in pairwise fashion at each visit in the fixed-dose period using an ANCOVA model that included treatment and center as effects and baseline pain intensity as the covariate. Separate models were used to evaluate both the treatment by center and treatment by baseline pain intensity interaction terms.

[1] = baseline to fixed dose week 1, LOCF
[2] = baseline to fixed dose week 2, LOCF
[3] = baseline to fixed dose week 3, LOCF
[4] = baseline to fixed dose week 4, LOCF
[5] = baseline to fixed dose week 5, LOCF
[6] = baseline to fixed dose week 6, LOCF

COc1ccc2c3c1O[C@H]1C(=O)CC[C@@]4(O)[C@@H](C2)N(C)CC[C@]314 [OXY QID, oxycodone]
Pain intensity, change from baseline, MEAN (SD) (baseline to fixed dose week 1): −3.6 (2.60) | Pain intensity, percent change from baseline, MEAN (SD) (baseline to fixed dose week 1): −47.5 (33.12) percent | Pain intensity, change from baseline, MAXIMUM [1]: 3.0 | Pain intensity, change from baseline, MEDIAN [1]: −3.7 | Pain intensity, change from baseline, MINIMUM [1]: −9.7 | Pain intensity, percent change from baseline, MAXIMUM [1]: 42.9% | Pain intensity, percent change from baseline, MEDIAN [1]: −52.4% | Pain intensity, percent change from baseline, MINIMUM [1]: −100.0% | Pain intensity, change from baseline, MEAN (SD) (baseline to fixed dose week 2): −3.6 (2.59) | Pain intensity, percent change from baseline, MEAN (SD) (baseline to fixed dose week 2): −47.1 (32.56) percent | Pain intensity, change from baseline, MAXIMUM [2]: 3.0 | Pain intensity, change from baseline, MEDIAN [2]: −3.7 | Pain intensity, change from baseline, MINIMUM [2]: −9.7 | Pain intensity, percent change from baseline, MAXIMUM [2]: 42.9% | Pain intensity, percent change from baseline, MEDIAN [2]: −50.0% | Pain intensity, percent change from baseline, MINIMUM [2]: −100.0% | Pain intensity, change from baseline, MEAN (SD) (baseline to fixed dose week 3): −3.7 (2.64) | Pain intensity, percent change from baseline, MEAN (SD) (baseline to fixed dose week 3): −47.9 (33.29) percent | Pain intensity, change from baseline, MAXIMUM [3]: 3.0 | Pain intensity, change from baseline, MEDIAN [3]: −4.0 | Pain intensity, change from baseline, MINIMUM [3]: −9.7 | Pain intensity, percent change from baseline, MAXIMUM [3]: 42.9% | Pain intensity, percent change from baseline, MEDIAN [3]: −54.2% | Pain intensity, percent change from baseline, MINIMUM [3]: −100.0% | Pain intensity, change from baseline, MEAN (SD) (baseline to fixed dose week 4): −3.6 (2.68) | Pain intensity, percent change from baseline, MEAN (SD) (baseline to fixed dose week 4): −47.4 (33.84) percent | Pain intensity, change from baseline, MAXIMUM [4]: 3.0 | Pain intensity, change from baseline, MEDIAN [4]: −4.0 | Pain intensity, change from baseline, MINIMUM [4]: −9.7 | Pain intensity, percent change from baseline, MAXIMUM [4]: 42.9% | Pain intensity, percent change from baseline, MEDIAN [4]: −53.3% | Pain intensity, percent change from baseline, MINIMUM [4]: −100.0% | Pain intensity, change from baseline, MEAN (SD) (baseline to fixed dose week 5): −3.6 (2.72) | Pain intensity, percent change from baseline, MEAN (SD) (baseline to fixed dose week 5): −47.4 (34.44) percent | Pain intensity, change from baseline, MAXIMUM [5]: 3.0 | Pain intensity, change from baseline, MEDIAN [5]: −4.0 | Pain intensity, change from baseline, MINIMUM [5]: −9.7 | Pain intensity, percent change from baseline, MAXIMUM [5]: 42.9% | Pain intensity, percent change from baseline, MEDIAN [5]: −52.4% | Pain intensity, percent change from baseline, MINIMUM [5]: −100.0% | Pain intensity, change from baseline, MEAN (SD) (baseline to fixed dose week 6): −3.6 (2.70) | Pain intensity, change from baseline, MAXIMUM [6]: 3.0 | Pain intensity, change from baseline, MEDIAN [6]: −4.0 | Pain intensity, change from baseline, MINIMUM [6]: −9.7 | Pain intensity, actual value, MEAN (SD) (fixed dose week 1): 3.9 (2.53) | Pain intensity, actual value, MAXIMUM (fixed dose week 1, LOCF): 10.0 | Pain intensity, actual value, MEDIAN (fixed dose week 1, LOCF): 3.7 | Pain intensity, actual value, MINIMUM (fixed dose week 1, LOCF): 0.0 | Pain intensity, actual value, MEAN (SD) (fixed dose week 2): 3.9 (2.47) | Pain intensity, actual value, MAXIMUM (fixed dose week 2, LOCF): 10.0 | Pain intensity, actual value, MEDIAN (fixed dose week 2, LOCF): 3.7 | Pain intensity, actual value, MINIMUM (fixed dose week 2, LOCF): 0.0 | Pain intensity, actual value, MEAN (SD) (fixed dose week 3): 3.9 (2.52) | Pain intensity, actual value, MAXIMUM (fixed dose week 3, LOCF): 10.0 | Pain intensity, actual value, MEDIAN (fixed dose week 3, LOCF): 3.3 | Pain intensity, actual value, MINIMUM (fixed dose week 3, LOCF): 0.0 | Pain intensity, actual value, MEAN (SD) (fixed dose week 4): 3.9 (2.55) | Pain intensity, actual value, MAXIMUM (fixed dose week 4, LOCF): 10.0 | Pain intensity, actual value, MEDIAN (fixed dose week 4, LOCF): 3.3 | Pain intensity, actual value, MINIMUM (fixed dose week 4, LOCF): 0.0 | Pain intensity, actual value, MEAN (SD) (fixed dose week 5): 3.9 (2.59) | Pain intensity, actual value, MAXIMUM (fixed dose week 5, LOCF): 10.0 | Pain intensity, actual value, MEDIAN (fixed dose week 5, LOCF): 3.3 | Pain intensity, actual value, MINIMUM (fixed dose week 5, LOCF): 0.0 | Pain intensity, actual value, MEAN (SD) (fixed dose week 6): 3.9 (2.58) | Pain intensity percent change from baseline to fixed dose week 6, maximum (fixed dose week 6, LOCF, ITT): 42.9% | Pain intensity percent change from baseline to fixed dose week 6, mean (SD) (fixed dose week 6, LOCF, ITT): −47.5 (34.20) % | Pain intensity percent change from baseline to fixed dose week 6, median (fixed dose week 6, LOCF, ITT): −51.9% | Pain intensity percent change from baseline to fixed dose week 6, minimum (fixed dose week 6, LOCF, ITT): −100.0% | Pain intensity, actual value, MAXIMUM (fixed dose week 6, LOCF): 10.0 | Pain intensity, actual value, MEDIAN (fixed dose week 6, LOCF): 3.3 | Pain intensity, actual value, MINIMUM (fixed dose week 6, LOCF): 0.0
